According to the NIST ThermoML archive (doi:10.1016/j.jct.2014.07.023):
± gives the expanded uncertainty stated by the source.

Assay: molar heat capacity at constant pressure; xn = mol fraction of the nth substance listed
Details: 100 kPa, Liquid, Small sample (50 mg) DSC

Question: What does the source list for CC(O)CCO (centres undefined) [1,3-butanediol] + CO?
Answer: molar heat capacity at constant pressure (293.15 K, x1 = 0.097): 92.98 ± 4 J/K/mol; molar heat capacity at constant pressure (293.15 K, x1 = 0.1924): 105.32 ± 4.5 J/K/mol; molar heat capacity at constant pressure (293.15 K, x1 = 0.2893): 118.06 ± 5 J/K/mol; molar heat capacity at constant pressure (293.15 K, x1 = 0.3902): 131.62 ± 5.6 J/K/mol; molar heat capacity at constant pressure (293.15 K, x1 = 0.4943): 145.68 ± 6.2 J/K/mol; molar heat capacity at constant pressure (293.15 K, x1 = 0.6067): 161 ± 6.9 J/K/mol; molar heat capacity at constant pressure (293.15 K, x1 = 0.7843): 185.37 ± 7.8 J/K/mol; molar heat capacity at constant pressure (293.15 K, x1 = 0.9064): 202.23 ± 8.6 J/K/mol; molar heat capacity at constant pressure (293.15 K, x1 = 0.9165): 203.63 ± 8.6 J/K/mol; molar heat capacity at constant pressure (293.15 K, x1 = 0.9242): 204.61 ± 8.7 J/K/mol; molar heat capacity at constant pressure (293.15 K, x1 = 0.9624): 210.08 ± 8.9 J/K/mol; molar heat capacity at constant pressure (293.15 K, x1 = 1): 215.84 ± 9.2 J/K/mol; molar heat capacity at constant pressure (298.15 K, x1 = 0.097): 94.08 ± 4 J/K/mol; molar heat capacity at constant pressure (298.15 K, x1 = 0.1924): 106.66 ± 4.5 J/K/mol; molar heat capacity at constant pressure (298.15 K, x1 = 0.2893): 119.57 ± 5.1 J/K/mol; molar heat capacity at constant pressure (298.15 K, x1 = 0.3902): 133.42 ± 5.6 J/K/mol; molar heat capacity at constant pressure (298.15 K, x1 = 0.4943): 147.68 ± 6.3 J/K/mol; molar heat capacity at constant pressure (298.15 K, x1 = 0.6067): 163.22 ± 6.9 J/K/mol; molar heat capacity at constant pressure (298.15 K, x1 = 0.7843): 187.93 ± 8 J/K/mol; molar heat capacity at constant pressure (298.15 K, x1 = 0.9064): 205.11 ± 8.7 J/K/mol; molar heat capacity at constant pressure (298.15 K, x1 = 0.9165): 206.44 ± 8.8 J/K/mol; molar heat capacity at constant pressure (298.15 K, x1 = 0.9242): 207.52 ± 8.8 J/K/mol; molar heat capacity at constant pressure (298.15 K, x1 = 0.9624): 213.07 ± 9.1 J/K/mol; molar heat capacity at constant pressure (298.15 K, x1 = 1): 218.9 ± 9.3 J/K/mol; molar heat capacity at constant pressure (303.15 K, x1 = 0.097): 95.24 ± 4 J/K/mol; molar heat capacity at constant pressure (303.15 K, x1 = 0.1924): 108.04 ± 4.6 J/K/mol; molar heat capacity at constant pressure (303.15 K, x1 = 0.2893): 121.13 ± 5.1 J/K/mol; molar heat capacity at constant pressure (303.15 K, x1 = 0.3902): 135.23 ± 5.7 J/K/mol; molar heat capacity at constant pressure (303.15 K, x1 = 0.4943): 149.69 ± 6.4 J/K/mol; molar heat capacity at constant pressure (303.15 K, x1 = 0.6067): 165.51 ± 7 J/K/mol; molar heat capacity at constant pressure (303.15 K, x1 = 0.7843): 190.57 ± 8.1 J/K/mol; molar heat capacity at constant pressure (303.15 K, x1 = 0.9064): 207.99 ± 8.8 J/K/mol; molar heat capacity at constant pressure (303.15 K, x1 = 0.9165): 209.34 ± 8.9 J/K/mol; molar heat capacity at constant pressure (303.15 K, x1 = 0.9242): 210.44 ± 8.9 J/K/mol; molar heat capacity at constant pressure (303.15 K, x1 = 0.9624): 216.06 ± 9.1 J/K/mol; molar heat capacity at constant pressure (303.15 K, x1 = 1): 222.06 ± 9.5 J/K/mol; molar heat capacity at constant pressure (308.15 K, x1 = 0.097): 96.45 ± 4.1 J/K/mol; molar heat capacity at constant pressure (308.15 K, x1 = 0.1924): 109.47 ± 4.6 J/K/mol; molar heat capacity at constant pressure (308.15 K, x1 = 0.2893): 122.79 ± 5.2 J/K/mol; molar heat capacity at constant pressure (308.15 K, x1 = 0.3902): 137.09 ± 5.8 J/K/mol; molar heat capacity at constant pressure (308.15 K, x1 = 0.4943): 151.69 ± 6.4 J/K/mol; molar heat capacity at constant pressure (308.15 K, x1 = 0.6067): 167.79 ± 7.1 J/K/mol; molar heat capacity at constant pressure (308.15 K, x1 = 0.7843): 193.28 ± 8.2 J/K/mol; molar heat capacity at constant pressure (308.15 K, x1 = 0.9064): 210.95 ± 9 J/K/mol; molar heat capacity at constant pressure (308.15 K, x1 = 0.9165): 212.24 ± 9 J/K/mol; molar heat capacity at constant pressure (308.15 K, x1 = 0.9242): 213.44 ± 9.1 J/K/mol; molar heat capacity at constant pressure (308.15 K, x1 = 0.9624): 219.14 ± 9.3 J/K/mol; molar heat capacity at constant pressure (308.15 K, x1 = 1): 225.21 ± 9.6 J/K/mol; molar heat capacity at constant pressure (313.15 K, x1 = 0.097): 97.77 ± 4.1 J/K/mol; molar heat capacity at constant pressure (313.15 K, x1 = 0.1924): 110.98 ± 4.7 J/K/mol; molar heat capacity at constant pressure (313.15 K, x1 = 0.2893): 124.45 ± 5.3 J/K/mol; molar heat capacity at constant pressure (313.15 K, x1 = 0.3902): 139 ± 5.9 J/K/mol; molar heat capacity at constant pressure (313.15 K, x1 = 0.4943): 153.82 ± 6.5 J/K/mol; molar heat capacity at constant pressure (313.15 K, x1 = 0.6067): 170.15 ± 7.2 J/K/mol; molar heat capacity at constant pressure (313.15 K, x1 = 0.7843): 195.92 ± 8.3 J/K/mol; molar heat capacity at constant pressure (313.15 K, x1 = 0.9064): 213.91 ± 9.1 J/K/mol; molar heat capacity at constant pressure (313.15 K, x1 = 0.9165): 215.22 ± 9.1 J/K/mol; molar heat capacity at constant pressure (313.15 K, x1 = 0.9242): 216.44 ± 9.2 J/K/mol; molar heat capacity at constant pressure (313.15 K, x1 = 0.9624): 222.22 ± 9.4 J/K/mol; molar heat capacity at constant pressure (313.15 K, x1 = 1): 228.37 ± 9.7 J/K/mol; molar heat capacity at constant pressure (318.15 K, x1 = 0.097): 99.12 ± 4.2 J/K/mol; molar heat capacity at constant pressure (318.15 K, x1 = 0.1924): 112.54 ± 4.8 J/K/mol; molar heat capacity at constant pressure (318.15 K, x1 = 0.2893): 126.21 ± 5.4 J/K/mol; molar heat capacity at constant pressure (318.15 K, x1 = 0.3902): 140.97 ± 6 J/K/mol; molar heat capacity at constant pressure (318.15 K, x1 = 0.4943): 155.95 ± 6.6 J/K/mol; molar heat capacity at constant pressure (318.15 K, x1 = 0.6067): 172.5 ± 7.3 J/K/mol; molar heat capacity at constant pressure (318.15 K, x1 = 0.7843): 198.72 ± 8.5 J/K/mol; molar heat capacity at constant pressure (318.15 K, x1 = 0.9064): 216.88 ± 9.2 J/K/mol; molar heat capacity at constant pressure (318.15 K, x1 = 0.9165): 218.21 ± 9.3 J/K/mol; molar heat capacity at constant pressure (318.15 K, x1 = 0.9242): 219.44 ± 9.3 J/K/mol; molar heat capacity at constant pressure (318.15 K, x1 = 0.9624): 225.38 ± 9.6 J/K/mol; molar heat capacity at constant pressure (318.15 K, x1 = 1): 231.61 ± 9.8 J/K/mol; molar heat capacity at constant pressure (323.15 K, x1 = 0.097): 100.56 ± 4.3 J/K/mol; molar heat capacity at constant pressure (323.15 K, x1 = 0.1924): 114.18 ± 4.8 J/K/mol; molar heat capacity at constant pressure (323.15 K, x1 = 0.2893): 128.02 ± 5.4 J/K/mol; molar heat capacity at constant pressure (323.15 K, x1 = 0.3902): 142.94 ± 6.1 J/K/mol; molar heat capacity at constant pressure (323.15 K, x1 = 0.4943): 158.19 ± 6.7 J/K/mol; molar heat capacity at constant pressure (323.15 K, x1 = 0.6067): 174.92 ± 7.4 J/K/mol; molar heat capacity at constant pressure (323.15 K, x1 = 0.7843): 201.51 ± 8.5 J/K/mol; molar heat capacity at constant pressure (323.15 K, x1 = 0.9064): 219.93 ± 9.3 J/K/mol; molar heat capacity at constant pressure (323.15 K, x1 = 0.9165): 221.28 ± 9.4 J/K/mol; molar heat capacity at constant pressure (323.15 K, x1 = 0.9242): 222.53 ± 9.4 J/K/mol; molar heat capacity at constant pressure (323.15 K, x1 = 0.9624): 228.55 ± 9.7 J/K/mol; molar heat capacity at constant pressure (323.15 K, x1 = 1): 234.86 ± 10 J/K/mol
